Entries after “also recorded” stand apart in the source; their conditions may differ.
Columns and labels:
HMOX1 = HMOX1 mRNA expression in HepG2 cells (Nanostring); assay type: cell-based, human; conditions: 24 hours treatment, mRNA fold change vs DMSO
Experimental: Example 147. HMOX1 Inducers of the Invention Strongly Increase In Vitro Expression of HMOX1
(§1) RNA Isolation and Quantification of Gene Expression
(§2) HepG2 cells were seeded at 250 k/well in 12-well tissue culture plates coated with collagen (collagen I, rat tail (thin plate coating); ENZO Life Sciences) for approximately 24 hours. The seeded cells were then treated with dose titration of the compound of Example 17 or dimethyl fumarate (DMF) (a Nrf2 activator; Fisher Scientific) via media change, with biological triplicates performed for each treatment. After approximately 24 hours of treatment, cells were visually inspected to confirm that no toxicity occurred with compound treatment. The treated cells were washed with PBS, aspirated, parafilmed and frozen at −80° C. prior to RNA isolation. RNA was isolated using Machery-Nagel isolation kit (NucleoSpin® RNA: catalog 740955.250) and then quantitated using ThermoFisher Nanodrop.
RNA was diluted for Nanostring gene expression analysis. […]
The relative mRNA levels of the HMOX1 gene in HepG2 cells treated with the compound of Example 17 or DMF were measured according to the methods described above. […]

FTH1 = FTH1 mRNA expression in HepG2 cells (Nanostring); assay type: cell-based, human; conditions: 24 hours treatment
Experimental: as §1, §2
RNA was diluted for Nanostring gene expression analysis. The diluted RNA at an input of 200 ng RNA was run on a Nanostring instrument, which was supported with nCounter® SPRINT Profiler System and nSolver4.0 Software, nCounter® SPRINT Cartridge, nCounter® SPRINT Reagent Pack, and nCounter® SPRINT Hybridization Buffer. Analysis was done manually using raw data obtained from nSolver4.0 Software. CLTC, POLR2A, RPL27 and TBP were used as reference genes for normalization. Data was graphed as fold change compared to DMSO treatment. […]

HbSS Townes sickle mice = test: Heme-induced vaso-occlusion (stasis) in HbSS Townes sickle mice; assay type: in vivo; conditions: 10, 25, 50 mg/kg PO once daily for 8 days, 1 h after heme infusion
From the text: Townes-SS mice were gavaged once daily with Vehicle or the compound of Example 17 for 8 days. After the last gavage dorsal skin-fold chambers were implanted on the mice and 20-22 flowing venules were selected and mapped in the subcutaneous skin using intravital microscopy. Mice were then infused via the tail vein with Panhematin (3.2 μmots heme/kg body weight). One hour after infusion each venule was re-examined for microvascular stasis (no flow) and data are expressed as % stasis. Stasis values are means+SD. One-Way ANOVA with Dunnett's Multiple comparison to Vehicle ****P<0.0001
Dosing Scheme of HMOX Inducers to HbSS Townes Sickle Mice
HbSS Townes sickle mice were oral gavaged once daily with Vehicle or the compound of Example 17 listed below for 8 days. To minimize experimental inconsistency, fresh formulation was prepared every day and vortexed prior to drawing test article into syringe for each dosing, and dosing was performed by the same individual throughout the day. The last-day dose was administered by oral gavage 4 hours prior to hemin infusion described below. • 1. […]
Male and female sickle mice, approximately 12 weeks of age, were weighed before surgery. […] All of the selected venules were re-examined at 1 h after hemin infusion, and the number of static (no flow) venules was counted and expressed as percent stasis. […]

[1] = PD study: compound concentration in mouse liver; assay type: in vivo, C57BL/6 mice; conditions: male, C57BL/6, mouse, 50 mg/kg, 50 mpk oral
Experimental: 9-10 week old male C57BL/6 mice were dosed orally with 50 mg/kg of vehicle or compound formulated in 5% w/v tween 80 and 0.5% methyl cellulose. At indicated time points (3 and 6 hours or or 4 and 8 hours post-dosing as shown in the results below), whole blood was collected, animal was sacrificed and liver was collected. Blood samples were transferred to vials containing 4 μL of 10% w/v EDTA, centrifuged at 6000 rpm for 8 in below 10° C. to obtain plasma. Samples were frozen and later processed for HMOX1 protein levels as indicated below: […]

Cn1c(Nc2nc3ccccc3o2)nc2cc(C(=O)NCCOCCO)ccc21 [Example 17, 2-(benzo[d]oxazol-2-ylamino)-N-(2-(2-hydroxyethoxy)ethyl)-1-methyl-1H-benzo[d]imidazole-5-carboxamide]
HMOX1 expression compared with DMF (in words) (HMOX1): much more strongly than DMF
FTH1 expression fold increase (in words) (FTH1): comparable fold increases
microvascular stasis compared with Vehicle (in words) (HbSS Townes sickle mice): significantly reduced; also recorded: dose responsively inhibit
concentration at 4 h ([1]; 4 hours (Study 702), read-out: Liver Conc uM (4 h)): 11 µM
concentration at 8 h ([1]; 8 hours (Study 702), read-out: Liver Conc uM (8 h)): 4.9 µM

Reference: US10766888B1, “HMOX1 inducers” (Mitobridge Inc., priority 2019, dated 2020)
